MIC data for 14 molecules are collected here from patent US11180504B2 (ORCHID PHARMA LTD., priority 2016, dated 2021).

Experiment [1] relates to carbapenemase producing K. pneumoniae. Kind of experiment: MIC by broth micro-dilution (CLSI), carbapenemase producing K. pneumoniae. Type of experiment: cell-based, Klebsiella pneumoniae.
For experiment [2], the system named is methicillin-sensitive Staphylococcus aureus. Kind of experiment: MIC by broth micro-dilution (CLSI), methicillin-sensitive S. aureus. Format: cell-based. The note with it: MSSA S. aureus ATCC29213.
Experiment [3] relates to carbapenem sensitive Pseudomonas aeruginosa. In words: MIC by broth micro-dilution (CLSI), carbapenem sensitive P. aeruginosa. Format: cell-based.
In experiment [4] the test system is carbapenem sensitive Escherichia coli. Kind of experiment: MIC by broth micro-dilution (CLSI), carbapenem sensitive E. coli. Format: cell-based.
Setting [5] is: Klebsiella pneumoniae, ATCCBAA1705, KPC-2 K. pneumoniae ATCC BAA-1705, read-out: MIC.
Setting [6] is: Staphylococcus aureus, ATCC 29213 / MSSA, read-out: MIC.
Where [7] appears, read: Pseudomonas aeruginosa, ATCC27853, Meropenem susceptible P. aeruginosa ATCC27853, read-out: MIC.
[8] abbreviates: Escherichia coli, ATCC25922, ESBL −ve E. coli ATCC25922, read-out: MIC.

≈ marks a conversion by molar mass, not a printed value. Like-named read-outs stand apart in the source and are kept apart here.

As for `C[C@@H](NC(=O)Cn1cnnn1)[C@H]1C(=O)N2C(C(=O)O)=C(S[C@@H]3CN[C@H](C(=O)N4CC[C@@H](N)[C@H]4CO)C3)[C@H](C)[C@H]12` [Example 523, (4R,5S,6R)-6-((R)-1-(2-(1H-tetrazol-1-yl)acetamido)ethyl)-3-((3S,5S)-5-((2S,3R)-3-amino-2-(hydroxymethyl)pyrrolidine-1-carbonyl)pyrrolidin-3-ylthio)-4-methyl-7-oxo-1-azabicyclo[3.2.0]hept-2-ene-2-carboxylic acid], the MIC amounted to 1 µg/mL (≈ 1.77 µM) in experiment [1] (KPC-2 K. pneumoniae ATCC BAA-1705), 2 µg/mL (≈ 3.55 µM) in experiment [2], 1 µg/mL (≈ 1.77 µM) in experiment [3] (Meropenem susceptible P. aeruginosa ATCC27853) and 0.125 µg/mL (≈ 0.222 µM) in experiment [4] (ESBL −ve E. coli ATCC25922).
On to `C[C@@H](NC(=O)Cn1cnnn1)[C@H]1C(=O)N2C(C(=O)O)=C(S[C@@H]3CN[C@H](C(=O)N4C[C@H]5CNC[C@@]5(CO)C4)C3)[C@H](C)[C@H]12` [Example 524, (4R,5S,6R)-6-((R)-1-(2-(1H-tetrazol-1-yl)acetamido)ethyl)-3-((3S,5S)-5-((3aR,6aR)-3a-(hydroxymethyl)octahydropyrrolo[3,4-c]pyrrole-2-carbonyl)pyrrolidin-3-ylthio)-4-methyl-7-oxo-1-azabicyclo[3.2.0]hept-2-ene-2-carboxylic acid], for which the MIC in experiment [1] (setting [5]) turned out to be 2 µg/mL (≈ 3.39 µM); in experiment [2] (setting [6]) it was 4 µg/mL (≈ 6.78 µM); in experiment [3] (setting [7]) it was 1 µg/mL (≈ 1.7 µM); in experiment [4] (setting [8]), 0.25 µg/mL (≈ 0.424 µM).
For `C[C@@H](NC(=O)Cn1cnnn1)[C@H]1C(=O)N2C(C(=O)O)=C(S[C@@H]3CN[C@H](C(=O)N4C[C@@H]5CNC[C@]5(CO)C4)C3)[C@H](C)[C@H]12` [Example 525, (4R,5S,6R)-6-((R)-1-(2-(1H-tetrazol-1-yl)acetamido)ethyl)-3-((3S,5S)-5-((3aS,6aS)-3a-(hydroxymethyl)octahydropyrrolo[3,4-c]pyrrole-2-carbonyl)pyrrolidin-3-ylthio)-4-methyl-7-oxo-1-azabicyclo[3.2.0]hept-2-ene-2-carboxylic acid] the same measures were 2 µg/mL (≈ 3.39 µM), 4 µg/mL (≈ 6.78 µM), 0.5 µg/mL (≈ 0.848 µM) and 0.25 µg/mL (≈ 0.424 µM).
For `C[C@@H](NC(=O)Cn1cnnn1)[C@H]1C(=O)N2C(C(=O)O)=C(S[C@@H]3CN[C@H](C(=O)N4C[C@H]5C[C@H](N)C[C@@]5(CO)C4)C3)[C@H](C)[C@H]12` [Example 526, (4R,5S,6R)-6-((R)-1-(2-(1H-tetrazol-1-yl)acetamido)ethyl)-3-((3S,5S)-5-((3aS,5S,6aS)-5-amino-3a-(hydroxymethyl)octahydrocyclopenta[c]pyrrole-2-carbonyl)pyrrolidin-3-ylthio)-4-methyl-7-oxo-1-azabicyclo[3.2.0]hept-2-ene-2-carboxylic acid], the MIC is 2 µg/mL (≈ 3.31 µM) in experiment [1] (setting [5]), 4 µg/mL (≈ 6.63 µM) in experiment [2] (setting [6]), 1 µg/mL (≈ 1.66 µM) in experiment [3] (setting [7]) and 0.25 µg/mL (≈ 0.414 µM) in experiment [4] (setting [8]).
Turning to `C[C@@H](NC(=O)Cn1cnnn1)[C@H]1C(=O)N2C(C(=O)O)=C(S[C@@H]3CN[C@H](C(=O)N4C[C@@H]5C[C@@H](N)C[C@]5(CO)C4)C3)[C@H](C)[C@H]12` [Example 529, (4R,5S,6R)-6-((R)-1-(2-(1H-tetrazol-1-yl)acetamido)ethyl)-3-((3S,5S)-5-((3aR,5R,6aR)-5-amino-3a-(hydroxymethyl)octahydrocyclopenta[c]pyrrole-2-carbonyl)pyrrolidin-3-ylthio)-4-methyl-7-oxo-1-azabicyclo[3.2.0]hept-2-ene-2-carboxylic acid], the MIC in experiment [1] (setting [5]) worked out at 2 µg/mL (≈ 3.31 µM); in experiment [2] (setting [6]), 4 µg/mL (≈ 6.63 µM); in experiment [3] (setting [7]), 1 µg/mL (≈ 1.66 µM); in experiment [4] (setting [8]) it was 0.25 µg/mL (≈ 0.414 µM).
For `C[C@@H](NC(=O)Cn1cnnn1)[C@H]1C(=O)N2C(C(=O)O)=C(S[C@@H]3CN[C@H](C(=O)N4C[C@H]5C[C@H](N)C[C@@]5(CN)C4)C3)[C@H](C)[C@H]12` [Example 538, (4R,5S,6R)-6-((R)-1-(2-(1H-tetrazol-1-yl)acetamido)ethyl)-3-((3S,5S)-5-((3aR,5S,6aS)-5-amino-3a-(aminomethyl)octahydro-cyclopenta[c]pyrrole-2-carbonyl)pyrrolidin-3-ylthio)-4-methyl-7-oxo-1-azabicyclo[3.2.0]hept-2-ene-2-carboxylic acid] the same measures were 2 µg/mL (≈ 3.32 µM), 4 µg/mL (≈ 6.64 µM), 1 µg/mL (≈ 1.66 µM) and 0.25 µg/mL (≈ 0.415 µM).
As to `C[C@@H](NC(=O)Cn1cnnn1)[C@H]1C(=O)N2C(C(=O)O)=C(S[C@@H]3CN[C@H](C(=O)N4CC5CNCC5C4)C3)[C@H](C)[C@H]12` (stereo partly drawn) [Example 540, (4R,5S,6R)-6-((R)-1-(2-(1H-tetrazol-1-yl)acetamido)ethyl)-4-methyl-3-((3S,5S)-5-(octahydropyrrolo-[3,4-c]pyrrole-2-carbonyl)pyrrolidin-3-ylthio)-7-oxo-1-azabicyclo[3.2.0]hept-2-ene-2-carboxylic acid], the MIC came to 2 µg/mL (≈ 3.57 µM) in experiment [1] (setting [5]), 4 µg/mL (≈ 7.15 µM) in experiment [2] (setting [6]), 1 µg/mL (≈ 1.79 µM) in experiment [3] (setting [7]) and 0.25 µg/mL (≈ 0.447 µM) in experiment [4] (setting [8]).
`C[C@@H](NC(=O)Cn1cnnn1)[C@H]1C(=O)N2C(C(=O)O)=C(S[C@@H]3CN[C@H](C(=O)N4CC5C[C@H]6C[C@@]5(CN6)C4)C3)[C@H](C)[C@H]12` (stereo partly drawn) [Example 541, (4R,5S,6R)-6-((R)-1-(2-(1H-tetrazol-1-yl)acetamido)ethyl)-3-((3S,5S)-5-((1R,7S)-3,8-Diaza-tricyclo[5.2.1.01,5]decane-3-carbonyl)pyrrolidin-3-ylthio)-4-methyl-7-oxo-1-azabicyclo[3.2.0]hept-2-ene-2-carboxylic acid]: the minimal inhibitory concentration (MIC) in experiment [1] (setting [5]) was found to be 1 µg/mL (≈ 1.71 µM); in experiment [2] (setting [6]), 2 µg/mL (≈ 3.41 µM); in experiment [3] (setting [7]), 1 µg/mL (≈ 1.71 µM); in experiment [4] (setting [8]), 0.25 µg/mL (≈ 0.427 µM).
Turning to `C[C@@H](NC(=O)Cn1cnnn1)[C@H]1C(=O)N2C(C(=O)O)=C(S[C@@H]3CN[C@H](C(=O)N4CC5CC(N)CC5C4)C3)[C@H](C)[C@H]12` (stereo partly drawn) [Example 543, (4R,5S,6R)-6-((R)-1-(2-(1H-tetrazol-1-yl)acetamido)ethyl)-3-((3S,5S)-5-(5-aminooctahydrocyclopenta[c]pyrrole-2-carbonyl)pyrrolidin-3-ylthio)-4-methyl-7-oxo-1-azabicyclo[3.2.0]hept-2-ene-2-carboxylic acid], the MIC in experiment [1] (setting [5]) stood at 1 µg/mL (≈ 1.74 µM); in experiment [2] (setting [6]) it was 2 µg/mL (≈ 3.49 µM); in experiment [3] (setting [7]) it was 2 µg/mL (≈ 3.49 µM); in experiment [4] (setting [8]) it was 0.5 µg/mL (≈ 0.872 µM).
With `C[C@@H](NC(=O)Cn1cnnn1)[C@H]1C(=O)N2C(C(=O)O)=C(S[C@@H]3CN[C@H](C(=O)N4C[C@@H](O)[C@H](NC(=N)N)C4)C3)[C@H](C)[C@H]12` [Example 544, (4R,5S,6R)-6-((R)-1-(2-(1H-tetrazol-1-yl)acetamido)ethyl)-3-((3S,5S)-5-((3R,4R)-3-guanidino-4-hydroxypyrrolidine-1-carbonyl)pyrrolidin-3-ylthio)-4-methyl-7-oxo-1-azabicyclo[3.2.0]hept-2-ene-2-carboxylic acid], the MIC in experiment [1] (setting [5]) was 0.5 µg/mL (≈ 0.845 µM); in experiment [2] (setting [6]), 1 µg/mL (≈ 1.69 µM); in experiment [3] (setting [7]), 1 µg/mL (≈ 1.69 µM); in experiment [4] (setting [8]), 0.25 µg/mL (≈ 0.423 µM).
As to `C[C@@H](NC(=O)Cn1cnnn1)[C@H]1C(=O)N2C(C(=O)O)=C(S[C@@H]3CN[C@H](C(=O)N4C[C@H](O)[C@H](NC(=N)N)C4)C3)[C@H](C)[C@H]12` [Example 545, (4R,5S,6R)-6-((R)-1-(2-(1H-tetrazol-1-yl)acetamido)ethyl)-3-((3S,5S)-5-((3R,4S)-3-guanidino-4-hydroxypyrrolidine-1-carbonyl)pyrrolidin-3-ylthio)-4-methyl-7-oxo-1-azabicyclo[3.2.0)hept-2-ene-2-carboxylic acid], the MIC in experiment [1] (setting [5]) is 0.5 µg/mL (≈ 0.845 µM); in experiment [2] (setting [6]) it was 1 µg/mL (≈ 1.69 µM); in experiment [3] (setting [7]) it was 1 µg/mL (≈ 1.69 µM); in experiment [4] (setting [8]), 0.125 µg/mL (≈ 0.211 µM).
In the case of `C[C@@H](NC(=O)Cn1cnnn1)[C@H]1C(=O)N2C(C(=O)O)=C(S[C@@H]3CN[C@H](C(=O)N4C[C@@H](O)[C@@H](NC(=N)N)C4)C3)[C@H](C)[C@H]12` [Example 546, (4R,5S,6R)-6-((R)-1-(2-(1H-tetrazol-1-yl)acetamido)ethyl)-3-((3S,5S)-5-((3S,4R)-3-guanidino-4-hydroxypyrrolidine-1-carbonyl)pyrrolidin-3-ylthio)-4-methyl-7-oxo-1-azabicyclo[3.2.0]hept-2-ene-2-carboxylic acid], the MIC in experiment [1] (setting [5]) was 1 µg/mL (≈ 1.69 µM); in experiment [2] (setting [6]), 1 µg/mL (≈ 1.69 µM); in experiment [3] (setting [7]), 2 µg/mL (≈ 3.38 µM); in experiment [4] (setting [8]) it was 0.25 µg/mL (≈ 0.423 µM).
In the case of `C[C@@H](NC(=O)Cn1cnnn1)[C@H]1C(=O)N2C(C(=O)O)=C(S[C@@H]3CN[C@H](C(=O)N4CC5[C@H](O)[C@H](N)C[C@@]5(CO)C4)C3)[C@H](C)[C@H]12` (stereo partly drawn) [Example 547, (4R,5S,6R)-6-((R)-1-(2-(1H-tetrazol-1-yl)acetamido)ethyl)-3-((3S,5S)-5-((3aS,5R,6S)-5-amino-6-hydroxy-3a-(hydroxymethyl)octahydro-cyclopenta[c]pyrrole-2-carbonyl)pyrrolidin-3-ylthio)-4-methyl-7-oxo-1-azabicyclo-[3.2.0]-hept-2-ene-2-carboxylic acid], the MIC in experiment [1] (setting [5]) turned out to be 2 µg/mL (≈ 3.23 µM); in experiment [2] (setting [6]) it was 4 µg/mL (≈ 6.45 µM); in experiment [3] (setting [7]) it was 2 µg/mL (≈ 3.23 µM); in experiment [4] (setting [8]) it was 0.5 µg/mL (≈ 0.807 µM).
On to `C[C@@H](NC(=O)Cn1cnnn1)[C@H]1C(=O)N2C(C(=O)O)=C(S[C@@H]3CN[C@H](C(=O)N4C[C@@H](O)[C@H](N)[C@H]4CO)C3)[C@H](C)[C@H]12` [Example 548, (4R,5S,6R)-6-((R)-1-(2-(1H-tetrazol-1-yl)acetamido)ethyl)-3-((3S,5S)-5-((2S,3R,4R)-3-amino-4-hydroxy-2-(hydroxymethyl)pyrrolidine-1-carbonyl)pyrrolidin-3-ylthio)-4-methyl-7-oxo-1-azabicyclo[3.2.0]hept-2-ene-2-carboxylic acid], for which the MIC in experiment [1] (setting [5]) turned out to be 1 µg/mL (≈ 1.73 µM); in experiment [2] (setting [6]), 8 µg/mL (≈ 13.8 µM); in experiment [3] (setting [7]), 4 µg/mL (≈ 6.9 µM); in experiment [4] (setting [8]), 0.25 µg/mL (≈ 0.431 µM).
